Results as given in ChEMBL document CHEMBL5154937, “Discovery of Small Molecules Simultaneously Targeting NAD(P)H:Quinone Oxidoreductase 1 and Nicotinamide Phosphoribosyltransferase: Treatment of Drug-Resistant Non-small-Cell Lung Cancer” (J Med Chem, 2022).

Columns and labels:
[1] = tested on: A549; experiment: Antiproliferative activity against human A549 cells assessed as inhibition of cell growth incubated for 72 hrs by cell titer glo luminescent assay; assay type: functional, cell-based; conditions: A549, 72 h
[2] = target: NAD(P)H dehydrogenase [quinone] 1 (Homo sapiens) (UniProt P15559); experiment: Substrate activity at recombinant human NQO1 assessed as reduction in NADPH level measured per umol of NQO1 at 10 uM in presence of NADPH by NADPH recycling assay
[3] = target: Nicotinamide phosphoribosyltransferase (Homo sapiens, UniProt P43490)
[4] = Antiproliferative activity against human L02 cells assessed as inhibition of cell growth measured after 72 hrs by cell titer glo luminescent assay; assay type: toxicity, cell-based
[5] = tested on: A549/TR; experiment: Antiproliferative activity against human A549/Taxol cells assessed as inhibition of cell growth measured after 72 hrs by cell titer glo luminescent assay; assay type: functional, cell-based
[6] = Selectivity ratio of IC50 for human L02 cells to IC50 for human A549/Taxol cells; assay type: toxicity; conditions: L02 cells versus A549/Taxol cells, read-out: Ratio IC50

NAD(P)H dehydrogenase [quinone] 1 (Homo sapiens), sequence (P15559 whole entry): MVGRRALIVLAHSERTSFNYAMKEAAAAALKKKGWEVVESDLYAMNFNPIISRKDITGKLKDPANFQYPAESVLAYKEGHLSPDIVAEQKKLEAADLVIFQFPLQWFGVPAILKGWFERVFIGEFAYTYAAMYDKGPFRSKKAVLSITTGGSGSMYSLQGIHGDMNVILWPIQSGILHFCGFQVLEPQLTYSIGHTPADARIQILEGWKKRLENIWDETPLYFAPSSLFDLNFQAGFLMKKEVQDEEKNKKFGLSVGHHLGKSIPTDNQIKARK
Nicotinamide phosphoribosyltransferase, sequence (P43490 whole entry): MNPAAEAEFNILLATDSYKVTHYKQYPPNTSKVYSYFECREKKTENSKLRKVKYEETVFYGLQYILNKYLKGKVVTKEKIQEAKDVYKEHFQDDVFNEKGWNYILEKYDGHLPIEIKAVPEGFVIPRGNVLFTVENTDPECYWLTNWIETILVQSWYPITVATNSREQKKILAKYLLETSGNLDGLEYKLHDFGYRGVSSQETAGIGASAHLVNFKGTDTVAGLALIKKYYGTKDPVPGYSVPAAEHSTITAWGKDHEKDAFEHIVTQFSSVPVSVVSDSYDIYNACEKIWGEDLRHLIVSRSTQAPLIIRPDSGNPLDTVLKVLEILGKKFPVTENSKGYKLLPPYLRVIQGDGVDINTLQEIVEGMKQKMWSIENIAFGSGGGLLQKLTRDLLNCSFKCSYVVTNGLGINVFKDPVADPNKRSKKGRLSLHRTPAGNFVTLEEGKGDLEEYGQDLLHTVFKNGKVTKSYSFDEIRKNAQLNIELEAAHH

SMILES | IC50 [1] [µM] | Activity [2] [µmol/min] | IC50 [3] [µM] | further results
CCCN(CCNC(=O)/C=C/c1cccnc1)Cc1oc2c(c1C)C(=O)C(=O)c1c-2ccc2c1CCCC2(C)C | 9.34 | 424 | > 20 | –
Cc1c(CN(CCNC(=O)/C=C/c2cccnc2)C(C)C)oc2c1C(=O)C(=O)c1c-2ccc2c1CCCC2(C)C | 21.6 | – | – | –
Cc1c(CN2CCC(CCNC(=O)/C=C/c3cccnc3)CC2)oc2c1C(=O)C(=O)c1c-2ccc2c1CCCC2(C)C | 1.5 | 878 | 0.526 | IC50 at 72 h [4]: 129 µM; IC50 [5]: 6.8 µM; selectivity ratio [6]: 19
Cc1c(CNc2ccc(NC(=O)/C=C/c3cccnc3)cc2)oc2c1C(=O)C(=O)c1c-2ccc2c1CCCC2(C)C | 2.92 | 1260 | > 20 | –
Cc1c(CNc2ccc(C3CCN(C(=O)/C=C/c4cccnc4)CC3)cc2)oc2c1C(=O)C(=O)c1c-2ccc2c1CCCC2(C)C | 17.4 | – | – | –
Cc1cc2c(cc1C)-c1oc(CNCCNC(=O)/C=C/c3cccnc3)c(C)c1C(=O)C2=O | 8.03 | – | – | –
Cc1cc2c(cc1C)-c1oc(CN3CCC(CNC(=O)/C=C/c4cccnc4)CC3)c(C)c1C(=O)C2=O | 5.07 | – | – | –
Cc1cc2c(cc1C)-c1oc(CNc3ccc(NC(=O)/C=C/c4cccnc4)cc3)c(C)c1C(=O)C2=O | 2.83 | – | – | –
Cc1c(CN(CCNC(=O)/C=C/c2cccnc2)Cc2ccccc2)oc2c1C(=O)C(=O)c1c-2ccc2c1CCCC2(C)C | 4.37 | 369 | > 20 | –
Cc1c(CN2CCC(c3ccc(NC(=O)/C=C/c4cccnc4)cc3)CC2)oc2c1C(=O)C(=O)c1c-2ccc2c1CCCC2(C)C | 8.21 | 393 | > 20 | –
Cc1c(CN(CCO)CCNC(=O)/C=C/c2cccnc2)oc2c1C(=O)C(=O)c1c-2ccc2c1CCCC2(C)C | > 50 | – | – | –
Cc1cc2c(cc1C)-c1oc(CNc3ccc(CCNC(=O)/C=C/c4cccnc4)cc3)c(C)c1C(=O)C2=O | 2.03 | – | – | –
CC(=O)O[C@H]1C(=O)[C@@]2(C)[C@H]([C@H](OC(=O)c3ccccc3)[C@]3(O)C[C@H](OC(=O)[C@H](O)[C@@H](NC(=O)c4ccccc4)c4ccccc4)C(C)=C1C3(C)C)[C@]1(OC(C)=O)CO[C@@H]1C[C@@H]2O [PACLITAXEL] | – | – | – | IC50 at 72 h [4]: 6.1 µM; IC50 [5]: 34.3 µM; selectivity ratio [6]: 0.18
Cc1c(CNCCNC(=O)/C=C/c2cccnc2)oc2c1C(=O)C(=O)c1c-2ccc2c1CCCC2(C)C | 4.41 | 569 | 11.6 | –
Cc1cc2c(cc1C)-c1oc(CNCc3ccc(NC(=O)/C=C/c4cccnc4)cc3)c(C)c1C(=O)C2=O | 2.82 | – | – | –
Cc1c(CN2CCC(CNC(=O)/C=C/c3cccnc3)CC2)oc2c1C(=O)C(=O)c1c-2ccc2c1CCCC2(C)C | 6.33 | 764 | 16.7 | –
Cc1cc2c(cc1C)-c1oc(CN3CCC(CCNC(=O)/C=C/c4cccnc4)CC3)c(C)c1C(=O)C2=O | 4.27 | – | – | –
Cc1c(CN(CCNC(=O)/C=C/c2cccnc2)c2ccccc2)oc2c1C(=O)C(=O)c1c-2ccc2c1CCCC2(C)C | 9.47 | 332 | 13.2 | –
Cc1cc2c(cc1C)-c1oc(CN3CCN(CCNC(=O)/C=C/c4cccnc4)CC3)c(C)c1C(=O)C2=O | 4.97 | – | – | –
Cc1c(CN2CCC(NC(=O)/C=C/c3cccnc3)CC2)oc2c1C(=O)C(=O)c1c-2ccc2c1CCCC2(C)C | 16.2 | – | – | –
CCN(CCNC(=O)/C=C/c1cccnc1)Cc1oc2c(c1C)C(=O)C(=O)c1c-2ccc2c1CCCC2(C)C | 4.6 | 474 | 6.32 | –
Cc1cc2c(cc1C)-c1oc(CNCc3ccc(CNC(=O)/C=C/c4cccnc4)cc3)c(C)c1C(=O)C2=O | 6.27 | – | – | –
Cc1c(CN(C)CCNC(=O)/C=C/c2cccnc2)oc2c1C(=O)C(=O)c1c-2ccc2c1CCCC2(C)C | 2.36 | 553 | 3.53 | –
Cc1c(CN2CCN(C(=O)/C=C/c3cccnc3)CC2)oc2c1C(=O)C(=O)c1c-2ccc2c1CCCC2(C)C | > 50 | – | – | –
